Results published in patent US11464788B2, “Oligomer-corticosteroid conjugates” (Nektar Therapeutics, priority 2007, dated 2022).
Read-outs that look alike come from different tables or passages of the source.

Key:
glucocorticoid receptors = molecular target: T1, glucocorticoid receptors (Rattus norvegicus, UniProt P06536); experiment: Glucocorticoid binding assay (competitive binding with [6,7-3H]triamcinolone acetonide); conditions: displacement of [6,7-3H]triamcinolone acetonide; glucocorticoid receptors from rat brains; 50 mM KH2PO4 pH 7.4, 0° C., 16 hours
T1 sequence (P06536 1-795): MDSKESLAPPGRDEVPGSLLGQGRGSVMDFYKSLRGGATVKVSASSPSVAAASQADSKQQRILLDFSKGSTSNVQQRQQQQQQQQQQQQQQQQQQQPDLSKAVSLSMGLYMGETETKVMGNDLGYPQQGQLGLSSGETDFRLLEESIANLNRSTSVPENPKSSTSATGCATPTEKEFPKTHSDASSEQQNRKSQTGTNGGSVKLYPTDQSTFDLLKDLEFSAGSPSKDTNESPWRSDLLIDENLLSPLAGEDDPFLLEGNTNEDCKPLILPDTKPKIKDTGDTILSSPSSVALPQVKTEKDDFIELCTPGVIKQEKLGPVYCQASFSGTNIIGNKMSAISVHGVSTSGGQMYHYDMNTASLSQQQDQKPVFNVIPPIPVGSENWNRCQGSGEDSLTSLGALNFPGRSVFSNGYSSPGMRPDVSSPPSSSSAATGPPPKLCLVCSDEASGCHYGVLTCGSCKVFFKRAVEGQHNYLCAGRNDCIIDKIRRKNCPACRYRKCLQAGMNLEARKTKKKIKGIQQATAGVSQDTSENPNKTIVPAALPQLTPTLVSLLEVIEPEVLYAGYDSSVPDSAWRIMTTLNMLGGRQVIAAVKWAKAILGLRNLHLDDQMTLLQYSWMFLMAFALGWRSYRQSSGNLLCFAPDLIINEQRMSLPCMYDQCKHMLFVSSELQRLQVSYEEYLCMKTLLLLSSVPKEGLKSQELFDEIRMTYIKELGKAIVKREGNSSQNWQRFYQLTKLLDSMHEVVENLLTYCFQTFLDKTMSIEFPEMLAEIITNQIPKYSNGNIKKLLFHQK
Method: The assay was used to determine whether the tested compounds bound to the glucocorticoid binding site and is based on procedures set forth in the literature. […] Int. […] Briefly, using competitive binding of with the radioligand “[6,7-^3H]triamcinolone acetonide” (30-50 Cl/mmol), reactions were carried out in 50 mM KH2PO4 (pH 7.4) containing 10 mM sodium molybdate and 10 mM α-monothioglycerol at 0° C. for 16 hours. The glucocorticoid receptors were obtained from rat brains. The reactions were terminated by rapid vacuum filtration onto glass fiber filters. Radioactively trapped onto the filters is determined and compared to control values. […] A higher IC50 value reflects a weaker binding affinity.

Compound: C[C@]12CCC(=O)C=C1CC[C@@H]1[C@@H]2C(=O)C[C@@]2(C)[C@H]1CC[C@]2(O)C(=O)CO [Cortisone]
- stability of the drug (pH 5.5): stable
- stability of the drug (pH 7.4): many decomposed impurities

Compound: C[C@]12CCC(=O)C=C1CC[C@@H]1[C@@H]2[C@@H](O)C[C@@]2(C)[C@H]1CC[C@]2(O)C(=O)CO [Hydrocortisone]
- stability of the drug (pH 7.4): much more stable than cortisone

Compound: CC1(C)O[C@@H]2C[C@H]3[C@@H]4CCC5=CC(=O)C=C[C@]5(C)[C@@]4(F)[C@@H](O)C[C@]3(C)[C@]2(C(=O)CO)O1 [Triamcinolone Acetonide]
- IC50 (glucocorticoid receptors): 1.21 nM

Compound: COCCOCCOCCOCCOCCOCCOCCOC(=O)NN=C1C=C2CCC3C(C(=O)CC4(C)C3CCC4(O)C(=O)CO)C2(C)CC1 (centres unmarked) [mPEG7-Cortisone]
- cortisone release from the conjugate (hydrolysis) (pH 5.5): able to release cortisone clearly
- cortisone release from the conjugate (hydrolysis) (pH 7.4): much slower than that at pH 5.5
- IC50 (glucocorticoid receptors): 3440 nM

Compound: COCCOCCOCCOCCOCCOCCOCCOC(=O)NN=C1C=C2CCC3C(C(O)CC4(C)C3CCC4(O)C(=O)CO)C2(C)CC1 (centres unmarked) [mPEG7-Hydrocortisone]
- IC50 (glucocorticoid receptors): 3.93 nM
